Test results as given in ChEMBL document CHEMBL1155441 (J Med Chem, 2010).

Biological target: WD repeat-containing protein 5 (Homo sapiens, UniProt P61964)
Test: Binding affinity to WDR5 expressed in pLysS cells by optimized fluorescent polarization based competitive binding assay
Assay type: biochemical

Row | IC50 [µM] | Ki [µM] | Structure (SMILES)
1 | > 300 | > 50 | C[C@H](N)C(=O)N[C@@H](CCCN=C(N)N)C(=O)N[C@@H](C)C(N)=O
2 |  | < 0.001 | CC(=O)N[C@@H](C)C(=O)N[C@@H](CCCNC(=N)N)C(=O)N[C@H](C(=O)N[C@@H](CCCCN)C(=O)N[C@@H](CCC(N)=O)C(=O)N[C@H](C(=O)N[C@@H](C)C(=O)N[C@@H](CCCNC(=N)N)C(=O)N[C@@H](CCCCN)C(=O)N[C@@H](CO)C(N)=O)[C@@H](C)O)[C@@H](C)O
3 | > 300 | > 50 | CC(=O)N[C@@H](C)C(=O)N[C@@H](CCCNC(=N)N)C(=O)N(C)[C@@H](C)C(N)=O
